Where two headings read alike, the source gives them in different places.
Key:
Assay type in all cases: cell-based, human
[1] = tested on: HeLa, MDA-MB-231 and MDA-MB-468 cells; assay: Energy metabolism pathway fluxes in intact cancer cells, pooled; conditions: 24 h
Experimental: For glycolysis flux, cells (3 mg protein/mL) were incubated in KR buffer. Glycolysis was started by adding 5 mM external glucose (Sigma-Aldrich, MO, USA), and cellular samples were withdrawn after 0 and 10 min of incubation at 37°C under smooth orbital shaking. At the indicated times, the cells were rapidly mixed with 3% (w/v) ice-cold perchloric acid and centrifuged. The supernatants were neutralized with 1N KOH/100mM Tris. To rule out lactate production by glutaminolysis, cells were also incubated with 10 mM 2-deoxyglucose (Sigma-Aldrich, MO, USA). Lactate was determined by a standard method with lactate dehydrogenase (Roche, Mannheim, Germany) following the NADH formation at 340 nm.
For oxidative phosphorylation (OxPhos) flux, cells (2–5 mg protein/mL) were incubated at 37°C in air saturated KR medium plus 5 mM glucose. […] The net OxPhos rate was determined by using a Clark type electrode, as previously described and by using a high-resolution respirometer (Oroboros Instruments, Innsbruck, Austria) at 37°C. The contribution of OxPhos and glycolysis to the cellular ATP supply was determined, respectively, from the net OxPhos rate (oligomycin-sensitive respiration) multiplied by the ATP/O or P»/O2 ratio that corresponds to 2.5 or 5, and from the rate of lactate production, assuming a stoichiometry of 1 mol of ATP produced per 1 mol of lactate produced.

Prostate PC3 cells = assay: Cell proliferation, 24 h drug exposure; conditions: for TI ratio (3T3/ cancer cells): IC50 3T3 / IC50 PC3; for TI ratio (H9C2/cancer cells): IC50 H9C2 / IC50 PC3; for IC50: Prostate PC3, 24 h, read-out: IC50 for proliferation cell rate
Experimental: (§1) All metastatic (breast MDA-MB231, MDA-MB468, cervix HeLa, prostate PC3, colorectal HCT116, COLO205, glioblastoma U373), low-metastatic (breast MCF-7) cancer and non-cancer (fibroblast 3T3, cardiomyocytes H9C2) cell lines (American Type Culture Collection, Rockville, MD, USA) used in this study were cultured in Petri dishes in 20 mL of Dulbecco’s Modified Eagle’s Medium (DMEM, Sigma, MO, USA) supplemented with 10% fetal bovine serum (Biowest, Mexico) and 10,000 U penicillin/streptomycin (Sigma-Aldrich, MO, USA). […] For growth and maintenance, cells were incubated in 5% CO2/95% air at 37°C and kept until 80–90% of confluence was reached. Then, cells were harvested, washed by centrifugation and resuspended in Krebs-Ringer buffer (KR, 125 mM NaCl, 5 mM KCl, 25 mM Hepes, 1 mM MgCl2, 1 mM KH2PO4, 1.4 mM CaCl2, pH 7.4) for further use. For experimentation, cancer cells (3–5 x 10^6 cells) were cultured in DMEM (with 25 mM glucose) for 24 h in the absence of drugs. Afterwards, old-medium was replaced with fresh DMEM medium (with 25 mM glucose) in the absence (control, non-treated cells) or in the presence of logarithmic concentrations of Aur and MA for 24 h more, under the same culture conditions described above. Viability of cultured cells was determined by the trypan blue exclusion assay. The protein concentration was determined by the Lowry method.
(§2) For cell proliferation in the presence of drugs, cancer cells (20 x 10^3 cells/well) were grown in 96-well plates containing DMEM (Sigma-Aldrich) plus 10% bovine fetal serum for 24 h. Afterwards, Aur or MA (0.01, 0.1, 10 and 100 μM) were added to the cell cultures and incubated for additional 24 h. The effect of these drugs on cell proliferation was determined in 96-well plates by the MTT (3-[4,5-dimethyl-thiazol-2-yl]-2,5-diphenyltetrazolium bromide) assay. The viability of cancer cells was > 95% after treatment with drugs.

Colorectal HCT116 cells = assay: Cell proliferation, 24 h drug exposure; conditions: for IC50: Colorectal HCT116, 24 h, read-out: IC50 for proliferation cell rate; for TI ratio (3T3/ cancer cells): IC50 3T3 / IC50 HCT-116; for TI ratio (H9C2/cancer cells): IC50 H9C2 / IC50 HCT-116
Experimental: as §1, §2

Breast MCF-7 cells = assay: Cell proliferation, 24 h drug exposure; conditions: for IC50: Breast MCF-7 (low metastatic), 24 h, read-out: IC50 for proliferation cell rate; for TI ratio (3T3/ cancer cells): IC50 3T3 / IC50 MCF-7; for TI ratio (H9C2/cancer cells): IC50 H9C2 / IC50 MCF-7
Experimental: as §1, §2

Breast MDA-MB-231 cells = assay: Cell proliferation, 24 h drug exposure; conditions: for IC50: Breast MDA-MB-231, 24 h, read-out: IC50 for proliferation cell rate; for TI ratio (3T3/ cancer cells): IC50 3T3 / IC50 MDA-MB-231; for TI ratio (H9C2/cancer cells): IC50 H9C2 / IC50 MDA-MB-231
Experimental: as §1, §2

Compound	inhibition of OxPhos and glycolysis fluxes ([1]; HeLa and MDA-MB-231 cells, Aur at IC50)	TI ratio (3T3/ cancer cells) (Prostate PC3 cells)	TI ratio (H9C2/cancer cells) (Prostate PC3 cells)	IC50 (Prostate PC3 cells)	IC50 (Colorectal HCT116 cells)	TI ratio (3T3/ cancer cells) (Colorectal HCT116 cells)	TI ratio (H9C2/cancer cells) (Colorectal HCT116 cells)	IC50 (Breast MCF-7 cells)	TI ratio (3T3/ cancer cells) (Breast MCF-7 cells)	TI ratio (H9C2/cancer cells) (Breast MCF-7 cells)	IC50 (Breast MDA-MB-231 cells)	TI ratio (3T3/ cancer cells) (Breast MDA-MB-231 cells)	TI ratio (H9C2/cancer cells) (Breast MDA-MB-231 cells)	inhibition of OxPhos flux ([1]; MA 6–50 μM (Table 2))	IC50 (Prostate PC3 cells; Homo sapiens, PC-3)	IC50 (Colorectal HCT116 cells; Homo sapiens, HCT-116)	IC50 (Breast MCF-7 cells; Homo sapiens, MCF7)	IC50 (Breast MDA-MB-231 cells; Homo sapiens)
CC(=O)OC[C@H]1O[C@@H]([S-])[C@H](OC(C)=O)[C@@H](OC(C)=O)[C@@H]1OC(C)=O.CCP(CC)CC.[Au+] [Aur, [1-(thio-κS)-β-D-glucopyranose-2,3,4,6-tetraacetyl] (triethylphosphine)-gold]	48–75%	6	12	6.5 ± 3.5 µM	3 ± 1 µM	14	26	5 ± 0.6 µM	8	15	0.8 ± 0.2 µM	52	97					
Cc1ccc(Cl)c(Nc2ccccc2C(=O)O)c1Cl [MA, Meclofenamic acid]		17	17			1	1		1	1		2	2	31–66%	6 ± 3 µM	> 100 µM	> 100 µM	51 ± 5 µM

Reference: publication PMC11407620, “Repurposing auranofin and meclofenamic acid as energy-metabolism inhibitors and anti-cancer drugs” (PLOS ONE, 2024)
